Assay results published in patent US12564595B2, “Prophylactic and therapeutic pharmaceutical agent for HIV infectious diseases characterized by comprising combination of integrase inhibitor and anti-HIV agent” (Shionogi & Co., Ltd., priority 2019, dated 2026).
Where two headings read alike, the source gives them in different places.

What was measured:
HIV [1] = assay: microbe, parasite or virus in culture; assay type: cell-based; conditions: Human immunodeficiency virus 1, MT4, 96 h, read-out: EC50 (50% HIV inhibition concentration), MT-4 cells, HIV, cultured four days, MTT
Description: A serial dilution series of test samples was prepared in 96-well microplates (50 μL/well).
100 μL/well in each case were dispensed onto plates having test samples of 2.5×10^5/mL MT-4 cell suspension, and HIV virus solution was then dispensed thereto in the amount of 50 μL/well. Mixing was performed using a plate mixer and culturing was performed for four days in a CO2 incubator. MTT (3-(4,5-dimethylthiazol-2-yl)-2,5-diphenyltetrazolium bromide) liquid was dispensed into each well in the amount of 30 μL in each case. The reaction was conducted for 1 h in a CO2 incubator. 150 μL of supernatant were removed from each well, taking care not to aspirate any cells. 150 μL of cell solution were added, and thorough mixing was performed with a plate mixer until all the cells had been dissolved. The optical absorbance of the mixed plates was measured at two wavelengths: 560 nm/690 nm, with a microplate reader.

[2] = test system: HIV mutant strain 1 (E138K/G140S/Q148H/N155H); assay: Test Example 2: resistance evaluation test (HeLa-CD4 reporter), mutant strain 1; assay type: cell-based; conditions: FC=EC50 of mutant strain/EC50 of wild strain; HeLa-CD4 cells
Description: (§1) A serial dilution series of test samples in 96-well microplates was prepared (50 […]).
(§2) 2.5×10^4/mL of HeLa-CD4 cell suspension was dispensed into each of the microplates containing test sample, in the amount of 100 μL/well, and HIV virus liquid (wild strain and mutant strain) was then dispensed in an amount of 50 μL/well. Mixing was performed using a plate mixer and culturing was performed for three days in a CO2 incubator. After removing the cultured supernatant of each well by suction, 100 μL of the cell solution buffer in the reporter measurement kit was dispensed thereto, and freezing was conducted in a refrigerator (−80° C.). The plates frozen in the refrigerator were defrosted at room temperature, then mixed using a plate mixer and centrifuged for 5 min at 1,200 rpm. The supernatant of each well was divided to 96-well microplates (BLACK) in the amount of 20 μL in each case. The chemiluminescence reagent in the reporter assay kit was dispensed in the amount of 100 μL in each case, and, after reacting for about 1 h at room temperature, the amount of luminescence was measured using a MicroBeta TRILUX.
(§3) The degree of resistance (fold change (FC)) of each mutant strain was also calculated using the following formula. FC=EC50 of mutant strain/EC50 of wild strain (Results)
(§4) The results of the example compounds relating to formula (I) of (A) are shown below. The […] in respect of mutant strain 1 (E138K/G140S/Q148H/N155H) and the FC in respect of mutant strain 2 (E92Q/E138T/G140S/Q148H) are shown in the Table.

[3] = Test Example 8: metabolic stability test; assay type: in vitro ADME, human; conditions: pooled human liver microsomes, 30 min at 37° C., NADPH, compound concentration 0.5 μmol/L
Description: The extent of metabolization of the compound according to the present invention in the liver was evaluated by reacting commercially available pooled human liver microsomes with the compound according to the present invention for a fixed time and calculating the remaining percentage by comparing the reaction sample with an unreacted sample.
The reaction (oxidative reaction) was conducted for 0 min or 30 min at 37° C. in the presence of 1 mmol/L of NADPH, in a 0.2 mL buffer solution containing 0.5 mg of human liver microsome protein/mL (50 mmol/L Tris-HCl pH 7.4, 150 mmol/L potassium chloride, 10 mmol/L magnesium chloride). After the reaction, 50 μL of reaction liquid were added to 100 μL of methanol/acetonitrile=1/1 (v/v) solution, mixed, and centrifuged for 15 minutes at 3000 rpm. The compound according to the present invention in the centrifuged supernatant was quantified using LC/MS/MS or solid phase extraction (SPE)/MS; the residual amount of the compound according to the present invention after the reaction was calculated, taking the amount of the compound at the 0 min reaction point as 100%.

HIV [4] = assay: Test Example 3: test for confirmation of combined use effect; assay type: cell-based; design: key to D value (dosewise additivity value): <-0.1 synergy, -0.1 to 0.1 additive, >0.1 antagonism
Text: The two compounds in respect of which the effect of combined use was desired to be examined were mixed in various ratios, and the anti-HIV activity (50% HIV inhibiting concentration) for each combination was found by the method of test example 1. […] A brief description of the method of calculating the D value is given below.
The D value that is found by evaluating the anti-HIV activity of respective combinations of M concentrations of compound X1 and N concentrations of compound X2 is calculated by the following mathematical expression 1.
The effect of combined use was evaluated in terms of the D value in accordance with the following criteria • −0.5 to −0.2: strong synergetic effect • −0.2 to −0.1: weak synergetic effect • […]: additive synergetic effect • 0.1 to 0.2: weak antagonism • 0.2 to 0.5: strong antagonism

[5] = test system: HIV mutant strain 2 (E92Q/E138T/G140S/Q148H); assay: Test Example 2: resistance evaluation test (HeLa-CD4 reporter), mutant strain 2; assay type: cell-based; conditions: FC=EC50 of mutant strain/EC50 of wild strain; HeLa-CD4 cells
Description: as §1, §2, §3, §4

[6] = compounds of formula (I′) of (B)
[7] = combination with compound (B) Compound C (CAI)
[8] = combination with compound (B) Darunavin (PI)
[9] = combination with compound (B) Darunavir (PI)
[10] = combination with compound (B) GS-6207 (CAI)
[11] = combination with compound (B) GSK2838232 (maturation inhibitor)
[12] = combination with compound (B) I′-189 (INLAI)
[13] = combination with compound (B) Lilpiperine (polymerase inhibitor)
[14] = combination with compound (B) Ramipzin (3TC) (polymerase inhibitor)
[15] = combination with compound (B) Rilpivirine (polymerase inhibitor)
[16] = combination with compound (B) VM-1500 (polymerase inhibitor)
[17] = compounds of formula (I) of (A)

Row | SMILES | EC50 (HIV [1]; [6]) [nM] | EC50 (HIV [1]; [17]) [nM] | FC in respect of mutant strain 1 (E138K/G140S/Q148H/N155H) [2] | Remaining percentage [3] [%] | FC in respect of mutant strain 2 (E92Q/E138T/G140S/Q148H) [5] | further results
1 | Cc1ccc(-c2c([C@H](OC(C)(C)C)C(=O)O)c(C)c3c4c2cc(C)n4CCN3c2nc3c(s2)CCN(C)C3)cc1 [I′-292] | 2.5 |  |  |  |  | 
2 | CCN1C(=O)c2c(O)c(=O)c(C(=O)NCc3c(F)cc(F)cc3F)cn2N2C[C@@H](C)CC[C@@H]12 [II-096] |  |  | 6.4 | 90.7 | 8.9 | D value (dosewise additivity value) (HIV [4]; [7]): 0.065; effect of combined use (HIV [4]; [7]): Additive (−0.1 to −0.1: additive synergetic effect); D value (dosewise additivity value) (HIV [4]; [8]): −0.130; effect of combined use (HIV [4]; [9]): Weak synergy (−0.2 to −0.1: weak synergetic effect); D value (dosewise additivity value) (HIV [4]; [10]): −0.125; effect of combined use (HIV [4]; [10]): Weak synergy (−0.2 to −0.1: weak synergetic effect); D value (dosewise additivity value) (HIV [4]; [11]): 0.001; effect of combined use (HIV [4]; [11]): Additive (−0.1 to −0.1: additive synergetic effect); D value (dosewise additivity value) (HIV [4]; [12]): 0.070; effect of combined use (HIV [4]; [12]): Additive (−0.1 to −0.1: additive synergetic effect); effect of combined use (HIV [4]; [13]): Additive (−0.1 to −0.1: additive synergetic effect); D value (dosewise additivity value) (HIV [4]; [14]): −0.177; effect of combined use (HIV [4]; [14]): Weak synergy (−0.2 to −0.1: weak synergetic effect); D value (dosewise additivity value) (HIV [4]; [15]): −0.035; D value (dosewise additivity value) (HIV [4]; [16]): −0.115; effect of combined use (HIV [4]; [16]): Weak synergy (−0.2 to −0.1: weak synergetic effect)
3 | COc1cnc(N2CCn3c(C)cc4c(-c5ccc(C)cc5)c([C@H](OC(C)(C)C)C(=O)O)c(C)c2c43)nc1 [I′-189] | 1.6 |  |  |  |  | 
4 | CN1C(=O)c2c(O)c(=O)c(-c3nnc(Cc4cccc(Cl)c4F)s3)cn2N2CCOC[C@@H]12 [II-122] |  | 0.24 | 30 | 102 | 25 | 
5 | Cc1ccc(-c2c([C@H](OC(C)(C)C)C(=O)O)c(C)c3c4c2cc(C)n4CCN3C)cc1 [I′-001] | 0.69 |  |  |  |  | 
6 | CCN1C(=O)c2c(O)c(=O)c(-c3nnc(Cc4c(F)cc(F)cc4F)s3)cn2N2C[C@@H](C)CC[C@@H]12 [II-156] |  | 1.2 | 3.5 | 91.3 | 4.6 | 
7 | CCN1C(=O)c2c(O)c(=O)c(-c3nnc(Cc4c(F)cc(F)cc4F)s3)cn2N2CC[C@H](C)C[C@@H]12 [II-147] |  | 1.8 | 5.1 | 91.5 | 7.3 | 
8 | CN1C(=O)c2c(O)c(=O)c(C(=O)NCc3cccc(Cl)c3F)cn2N2CCCC[C@@H]12 [II-092] |  |  | 6.8 | 101 | 7.7 | D value (dosewise additivity value) (HIV [4]; [7]): 0.056; effect of combined use (HIV [4]; [7]): Additive (−0.1 to −0.1: additive synergetic effect); D value (dosewise additivity value) (HIV [4]; [8]): −0.117; effect of combined use (HIV [4]; [9]): Weak synergy (−0.2 to −0.1: weak synergetic effect); D value (dosewise additivity value) (HIV [4]; [10]): −0.093; effect of combined use (HIV [4]; [10]): Additive (−0.1 to −0.1: additive synergetic effect); D value (dosewise additivity value) (HIV [4]; [11]): 0.000; effect of combined use (HIV [4]; [11]): Additive (−0.1 to −0.1: additive synergetic effect); effect of combined use (HIV [4]; [13]): Additive (−0.1 to −0.1: additive synergetic effect); D value (dosewise additivity value) (HIV [4]; [14]): −0.118; effect of combined use (HIV [4]; [14]): Weak synergy (−0.2 to −0.1: weak synergetic effect); D value (dosewise additivity value) (HIV [4]; [15]): −0.022
9 | CCN1C(=O)c2c(O)c(=O)c(-c3nnc(Cc4c(F)cc(F)cc4F)s3)cn2N2[C@H](C)CCC[C@@H]12 [II-125] |  | 1.4 | 11 | 88.5 | 26 | 
10 | COCC[C@H]1Cn2c(C)cc3c(-c4ccc(Cl)cc4)c([C@H](OC(C)(C)C)C(=O)O)c(C)c(c32)N1S(C)(=O)=O [I′-043] | 1.4 |  |  |  |  | 
11 | Cc1ccc(-c2c([C@H](OC(C)(C)C)C(=O)O)c(C)c3c4c2cc(C)n4CCN3c2ncc(OCCN(C)C)cn2)cc1 [I′-220] | 5.9 |  |  |  |  | 
12 | Cc1ccc(-c2c([C@H](OC(C)(C)C)C(=O)O)c(C)c3c4c2cc(C)n4CCN3c2ncc(CN(C)C)cn2)cc1 [I′-304] | 4.1 |  |  |  |  | 
13 | Cc1ccc(-c2c([C@H](OC(C)(C)C)C(=O)O)c(C)c3c4c2cc(C)n4CCN3CCN(C)C)cc1 [I′-027] | 9.9 |  |  |  |  | 
14 | CC(C)N1C(=O)c2c(O)c(=O)c(C(=O)NCc3ccc(F)cc3F)cn2N2CCCC[C@@H]12 [Compound I-004] |  | 2.5 |  |  |  | 
15 | C[C@H]1C[C@H]2N(C)C(=O)c3c(O)c(=O)c(C(=O)NCc4cccc(Cl)c4F)cn3N2C1 [II-036] |  |  | 15 | 97.4 | 7.9 | D value (dosewise additivity value) (HIV [4]; [7]): 0.032; effect of combined use (HIV [4]; [7]): Additive (−0.1 to −0.1: additive synergetic effect); D value (dosewise additivity value) (HIV [4]; [8]): −0.115; effect of combined use (HIV [4]; [9]): Weak synergy (−0.2 to −0.1: weak synergetic effect); D value (dosewise additivity value) (HIV [4]; [10]): −0.117; effect of combined use (HIV [4]; [10]): Weak synergy (−0.2 to −0.1: weak synergetic effect); D value (dosewise additivity value) (HIV [4]; [11]): 0.021; effect of combined use (HIV [4]; [11]): Additive (−0.1 to −0.1: additive synergetic effect); effect of combined use (HIV [4]; [13]): Additive (−0.1 to −0.1: additive synergetic effect); D value (dosewise additivity value) (HIV [4]; [14]): −0.184; effect of combined use (HIV [4]; [14]): Weak synergy (−0.2 to −0.1: weak synergetic effect); D value (dosewise additivity value) (HIV [4]; [15]): −0.044
16 | CN1C(=O)c2c(O)c(=O)c(C(=O)NCc3c(F)cc(F)cc3F)cn2N2CCCC[C@@H]12 [II-089] |  |  | 38 | 105 | 14 | 
17 | CN1C(=O)c2c(O)c(=O)c(C(=O)NCc3cccc(Cl)c3F)cn2N2CCCC[C@@]12C [II-129] |  |  | 44 | 88.6 | 26 | 

Further lines, with some results ahead:

Row | EC50 (HIV [1]; [6]) [nM] | EC50 (HIV [1]; [17]) [nM] | SMILES | FC in respect of mutant strain 1 (E138K/G140S/Q148H/N155H) [2] | Remaining percentage [3] [%] | FC in respect of mutant strain 2 (E92Q/E138T/G140S/Q148H) [5] | further results
18 |  | 0.39 | CC(C)N1C(=O)c2c(O)c(=O)c(C(=O)NCc3c(F)cc(F)cc3F)cn2N2CCOC[C@@H]12 [II-022] |  |  |  | 
19 |  | 0.67 | CCN1C(=O)c2c(O)c(=O)c(C(=O)NCc3ccc(F)cc3F)cn2N2[C@@H](C)c3cc(F)ccc3[C@@H]12 [II-140] |  |  |  | 
20 |  | 18 | CCN1C(=O)c2c(O)c(=O)c(C(=O)NCc3ccc(C#N)cc3)cn2N2CCCC[C@@H]12 [II-090] |  |  |  | 
21 |  | 18 | CCN1C(=O)c2c(O)c(=O)c(C(=O)NCc3cccc(C(F)(F)F)c3F)cn2N2CCCC[C@@H]12 [II-074] |  |  |  | 
